Assay results reported in patent publication US20240254119A1 (THIRD HARMONIC BIO, INC., priority 2022, published 2024).

Tests used:
[1] = system: KIT phosphorylation in M-07e cells; test: Cell-based KIT phosphorylation in M-07e cells by pKIT ELISA; set-up: species or system human; details: SCF stimulation
Procedure: Exemplary compounds were tested for ability to inhibit KIT phosphorylation using M-07e cells as monitored by pKIT ELISA. M-07e cells are also represented as M-07E, M-07e, M07-e, M07e, Mo7e, MO7e, M07E and MO7E. Assay procedures and results are described below.
Part I—Procedures for Determining KIT Inhibition inM-07e Cells Using pKTT ELISA Reagents and consumables: • M-07e cells: Initially obtained from Accegen, cat #ABC-TC1313 • p-cKIT Capture ELISA antibody: anti-Human Phospho-CD117/c-kit, R&D cat #DYC3527-5 • Anti-pY-HIRP antibody: R&D cat #DYC3527-5 • 25× wash buffer: Quantikine ELISA Wash Buffer 1, R&D cat #WA126 • PBS: R&D cat #DY006 • 96 well ELISA plates: Clear Polystyrene Microplates, R&D Cat #DY990 • 96 well Tissue culture plates: Corning® 96 Well TC-Treated Microplates, cat #CLS3894 • RPMI medium: ATCC® RPMI-1640 Medium, Cat #30-2001 • FBS: Fetal Bovine Serum, certified, United States Gibco, Thermo-Fisher 16000044 • GM-CSF: Recombinant Human GM-CSF Protein, R&D cat #215-GM • SCF: Recombinant Human SCF Protein, R&D cat #255-SC
• 1. Prepare cells: • a. Culture M-07e cells in RPMI medium+20% serum+GM-CSF+penstrep • To make 50 mL of growth medium • i. 40 mL RPMI media • ii. 10 mL FBS • iii. 10 uL of GM-CSF (100 ug/mL stock) • iv. 0.5 mL pen strep (100×) • b. Harvest cells • c. Re-suspend cells in 100% RPMI media (without serum) to final concentration of 1 million cells/mL • d. Transfer 100 uL of cell solution to 11 columns of a 96 well flat bottom cell culture plate • e. Incubate cells over night at 37 C • 2. Prepare ELISA Plates: • a. Dilute capture antibody to concentration 4 ug/mL in PBS • b. Coat 96 well microplates with 100 uL of capture antibody • c. Seal plates and incubate at RT overnight • d. Wash plates with 300 uL of wash buffer • e. Repeat wash • f. Treat plates with 300 uL of blocking buffer at RT for 1 hour • 3. Addition of compounds: • a. Prepare compound dilutions in RPMI media • i. Top test concentration is 1 uM • ii. Serially dilute compounds 3× for a total of 8 concentrations • b. Add 10 uL of 10× compound dilutions to cells • i. No compounds added in column 11 (for controls) • c. Incubate cells with compounds for 2 hours at 37 C • d. Stimulate cells with SCF for 5 min at concentration of 100 ng/mL (final) • i. In column 11 stimulate top 4 wells. Leave bottom 4 wells unstimulated • e. Remove cell culture media with multichannel pipet • f. Add 110 uL of Lysis buffer to all wells • g. Incubate plates at RT for 30 min while shaking • 4. Transfer 100 uL of cell lysis to each prepared Elisa plate • 5. Add 100 uL of the standard pc-KIT dilutions to the standard wells in column 12 • a. Top concentration=2000 pg/mL • b. 2× dilutions • 6. Incubate ELISA plate with cell lysate for 2 hours at RT • 7. Wash Plate with wash buffer (wash 1) • 8. Repeat wash (wash 2) • 9. […] Add 100 uL of diluted anti-pY-HRP (1/1000 dilution in detection antibody dilution buffer) and incubate 2 hours at RT • 11. Wash plate with wash buffer (wash 1) • 12. Repeat wash (wash 2) • 13. Repeat wash (wash 3) • 14. Add 100 uL of substrate solution to each well • 15. Incubate plates 20 min • Note: Plate development is indicated by aqua color • 16. Add 50 uL of stop solution to each well • 17. Determine optical density on Bitek Synergy Neo2: • a. Make new experiment
Select absorbance 1 set to 450 nm

Kinetic solubility assay = type: physicochemical; details: kinetic solubility, 50 mM PB (pH 7.4), shaken 24 hours at RT
Summary of the method: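 Concentration in the filtrate was determined by UPLC-UV or HPLC-UV with a standard curve. Before that, compound (10 mM DMSO stock) in 50 mM PB at pH 7.4 was agitated 24 h at room temperature, then PTFE-filtered with centrifugation.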

[2] = biological target: T1, BCRP (BCRP-MDCKII monolayer) (Homo sapiens, UniProt Q9UNQ0); test: MDCKII-BCRP bidirectional transport assay; type: in vitro ADME
T1 construct: host or cells: MDCKII (canine kidney) cells
T1 sequence (Q9UNQ0 1-655): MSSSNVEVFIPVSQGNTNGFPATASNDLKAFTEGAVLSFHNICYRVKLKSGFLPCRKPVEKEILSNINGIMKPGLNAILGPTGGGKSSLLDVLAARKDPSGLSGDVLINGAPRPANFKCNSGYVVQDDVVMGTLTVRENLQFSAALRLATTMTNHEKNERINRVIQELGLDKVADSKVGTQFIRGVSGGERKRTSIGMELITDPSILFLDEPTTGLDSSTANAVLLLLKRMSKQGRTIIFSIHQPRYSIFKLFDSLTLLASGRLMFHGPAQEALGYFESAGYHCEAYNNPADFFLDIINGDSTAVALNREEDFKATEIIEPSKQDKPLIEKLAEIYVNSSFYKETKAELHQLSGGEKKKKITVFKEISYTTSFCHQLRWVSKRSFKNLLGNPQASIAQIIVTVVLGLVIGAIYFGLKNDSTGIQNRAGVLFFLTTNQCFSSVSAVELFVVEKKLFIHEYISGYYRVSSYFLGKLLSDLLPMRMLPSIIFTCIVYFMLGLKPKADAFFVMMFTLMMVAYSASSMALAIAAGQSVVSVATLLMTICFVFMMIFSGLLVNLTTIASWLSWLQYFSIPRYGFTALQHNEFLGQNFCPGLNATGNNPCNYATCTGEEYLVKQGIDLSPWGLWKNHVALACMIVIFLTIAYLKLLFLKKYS
Summary of the method: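 Efflux ratios were derived from Papp values, alongside recovery, with compounds quantified by LC-MS/MS. Both directions were tested in duplicate across BCRP-MDCKII monolayers used on days 12–15. Incubation ran 120 min at 37° C, 5% CO2, after a 15 min preincubation in assay buffer.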

wtKIT [3] = biological target: T2, wtKIT (Homo sapiens, UniProt P10721); test: Caliper biochemical assay, wtKIT; details: Table 6, read-out: KIT Biochemical IC50 avg
T2 construct: 1888289AM in the reaction mixtures
T2 sequence (P10721 26-976): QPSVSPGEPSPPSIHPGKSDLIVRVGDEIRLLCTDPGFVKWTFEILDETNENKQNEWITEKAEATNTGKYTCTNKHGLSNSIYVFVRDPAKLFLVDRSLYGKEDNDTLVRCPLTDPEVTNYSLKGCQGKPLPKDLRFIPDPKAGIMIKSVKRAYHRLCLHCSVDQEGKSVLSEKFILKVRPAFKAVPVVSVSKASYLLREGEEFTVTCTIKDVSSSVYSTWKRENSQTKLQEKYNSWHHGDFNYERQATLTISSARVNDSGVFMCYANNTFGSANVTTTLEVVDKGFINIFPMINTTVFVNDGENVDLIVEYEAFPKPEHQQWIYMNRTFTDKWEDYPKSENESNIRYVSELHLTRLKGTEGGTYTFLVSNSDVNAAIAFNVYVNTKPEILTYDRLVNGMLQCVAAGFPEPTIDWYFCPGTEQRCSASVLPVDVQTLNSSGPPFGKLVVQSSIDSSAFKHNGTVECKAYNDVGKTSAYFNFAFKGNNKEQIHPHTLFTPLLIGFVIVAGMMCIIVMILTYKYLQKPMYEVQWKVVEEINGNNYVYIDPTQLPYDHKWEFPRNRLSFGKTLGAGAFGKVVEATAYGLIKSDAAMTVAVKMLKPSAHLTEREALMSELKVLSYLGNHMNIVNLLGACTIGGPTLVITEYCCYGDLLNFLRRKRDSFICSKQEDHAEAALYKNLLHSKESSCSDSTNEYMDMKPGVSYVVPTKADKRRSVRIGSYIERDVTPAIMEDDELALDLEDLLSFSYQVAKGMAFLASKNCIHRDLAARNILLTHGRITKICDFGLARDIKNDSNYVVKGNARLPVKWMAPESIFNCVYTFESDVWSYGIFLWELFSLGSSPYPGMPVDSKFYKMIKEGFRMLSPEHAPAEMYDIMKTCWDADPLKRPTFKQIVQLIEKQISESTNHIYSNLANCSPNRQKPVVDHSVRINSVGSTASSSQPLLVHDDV
Summary of the method: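 Mobility-shift read-out: after EDTA stop, fluorescent peptide substrate and product resolved electrophoretically on LabChip 3000. Reaction ran 3 h at 25° C with 400 μM ATP, Mn^2+ cofactor, 5.0 nM wtKIT, 1 μM FAM-peptide, pH 7.5 HEPES buffer; no-enzyme wells defined full inhibition.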

CSF-1R = biological target: T3, CSF-1R (Homo sapiens, UniProt P07333); test: Caliper biochemical assay, CSF-1R; details: Table 6
T3 construct: purchased Invitrogen PV3249 (lot 662393N)
T3 sequence (P07333 20-972): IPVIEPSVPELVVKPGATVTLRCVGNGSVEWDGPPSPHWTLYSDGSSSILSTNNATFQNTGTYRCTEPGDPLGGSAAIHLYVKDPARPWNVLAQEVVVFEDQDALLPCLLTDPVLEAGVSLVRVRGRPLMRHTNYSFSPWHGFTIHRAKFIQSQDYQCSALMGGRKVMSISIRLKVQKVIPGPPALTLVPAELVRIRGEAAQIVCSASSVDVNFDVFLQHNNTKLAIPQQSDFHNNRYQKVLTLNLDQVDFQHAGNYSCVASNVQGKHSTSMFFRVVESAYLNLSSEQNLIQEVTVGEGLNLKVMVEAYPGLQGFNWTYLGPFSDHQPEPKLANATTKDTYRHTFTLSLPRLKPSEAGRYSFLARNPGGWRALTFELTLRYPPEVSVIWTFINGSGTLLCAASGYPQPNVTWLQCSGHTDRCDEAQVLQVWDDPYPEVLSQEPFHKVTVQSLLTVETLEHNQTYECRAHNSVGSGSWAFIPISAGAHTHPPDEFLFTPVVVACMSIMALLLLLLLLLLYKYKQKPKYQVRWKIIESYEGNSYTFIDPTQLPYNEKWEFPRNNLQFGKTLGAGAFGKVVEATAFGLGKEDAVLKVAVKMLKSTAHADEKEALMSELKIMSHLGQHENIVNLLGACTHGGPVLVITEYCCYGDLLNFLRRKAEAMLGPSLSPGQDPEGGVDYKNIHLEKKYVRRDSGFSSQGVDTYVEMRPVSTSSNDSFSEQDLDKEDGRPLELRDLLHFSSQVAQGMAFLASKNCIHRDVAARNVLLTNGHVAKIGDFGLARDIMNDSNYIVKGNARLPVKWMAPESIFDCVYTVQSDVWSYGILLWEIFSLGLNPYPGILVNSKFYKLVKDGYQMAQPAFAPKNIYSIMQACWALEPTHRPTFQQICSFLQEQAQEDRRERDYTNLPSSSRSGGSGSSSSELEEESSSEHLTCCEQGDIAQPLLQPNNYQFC
Summary of the method: (§1)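 Mobility-shift readout: after EDTA quench, fluorescent peptide and product are resolved electrophoretically on a LabChip and measured by fluorescence. Reactions contain enzyme, carboxyfluorescein peptide, ATP, Mn^2+ and compound, run 3 h at 25° C; 100% inhibition control lacks enzyme.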

PDGFRα = biological target: T4, PDGFRα (Homo sapiens, UniProt P16234); test: Caliper biochemical assay, PDGFRα; details: Table 6
T4 construct: purchased Millipore 14-467 (lot 26321_ACTI)
T4 sequence (P16234 24-1089): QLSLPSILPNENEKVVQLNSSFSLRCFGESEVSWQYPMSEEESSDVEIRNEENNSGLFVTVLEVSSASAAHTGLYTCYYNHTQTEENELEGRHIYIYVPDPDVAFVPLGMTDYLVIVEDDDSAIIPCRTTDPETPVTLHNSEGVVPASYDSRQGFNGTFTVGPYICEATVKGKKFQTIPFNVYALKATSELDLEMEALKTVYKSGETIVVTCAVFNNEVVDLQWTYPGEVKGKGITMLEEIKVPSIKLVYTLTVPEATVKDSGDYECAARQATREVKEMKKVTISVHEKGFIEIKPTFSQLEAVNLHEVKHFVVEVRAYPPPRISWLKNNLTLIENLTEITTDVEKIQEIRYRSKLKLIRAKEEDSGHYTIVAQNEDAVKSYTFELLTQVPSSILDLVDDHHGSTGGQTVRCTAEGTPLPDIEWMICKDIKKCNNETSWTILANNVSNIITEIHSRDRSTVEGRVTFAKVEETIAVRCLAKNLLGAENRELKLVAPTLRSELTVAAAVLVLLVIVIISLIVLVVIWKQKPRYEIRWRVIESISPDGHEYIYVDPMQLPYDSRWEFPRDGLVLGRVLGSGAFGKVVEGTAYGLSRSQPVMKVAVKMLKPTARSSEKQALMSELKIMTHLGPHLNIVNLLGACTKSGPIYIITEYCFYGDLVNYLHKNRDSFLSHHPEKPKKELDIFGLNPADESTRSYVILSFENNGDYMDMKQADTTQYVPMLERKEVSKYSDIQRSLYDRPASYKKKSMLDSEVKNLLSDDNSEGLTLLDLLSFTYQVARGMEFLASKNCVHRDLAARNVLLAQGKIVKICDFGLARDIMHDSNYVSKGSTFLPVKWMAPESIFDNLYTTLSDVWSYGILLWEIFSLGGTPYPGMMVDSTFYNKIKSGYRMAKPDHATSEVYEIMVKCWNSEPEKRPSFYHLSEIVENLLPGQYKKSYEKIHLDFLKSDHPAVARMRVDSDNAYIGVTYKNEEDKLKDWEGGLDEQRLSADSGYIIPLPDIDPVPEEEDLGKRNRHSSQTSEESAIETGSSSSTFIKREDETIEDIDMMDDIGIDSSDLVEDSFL
Summary of the method: as §1

wtKIT [4] = biological target: T2, wtKIT; test: HTRF biochemical assay, wtKIT (phosphorylation of a peptide substrate); details: Table 4
Summary of the method: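 HTRF read-out of FAM-peptide (1 µM) phosphorylation after anti-phosphotyrosine antibody addition and EDTA quench. Reaction: 5.0 nM wtKIT, 400 µM ATP, 10 mM Mn2+, HEPES pH 7.5, 1% DMSO, 3 h, 25 °C; optional enzyme-compound preincubation; enzyme level set for 10-20% conversion.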

SMILES | IC50 [1] [nM] | Solubility (μM) (Kinetic solubility assay) | MDCK-BCRP: Efflux Ratio [2] | MDCK-BCRP: Papp A-B ([2]; apical to basolateral) | IC50 (wtKIT [3]) [nM] | IC50 (CSF-1R) [nM] | IC50 (PDGFRα) [nM] | IC50 (wtKIT [4]) [nM]
Cc1ccc(-c2noc(C[C@H](C)O)n2)cc1NC(=O)c1cnc2cc(C(F)F)ccn12 [Compound I-82] | 50 to 500 | **** (a solubility less than or equal to 2 μM) | – | – | – | – | – | –
Cc1ccc(-c2noc(C[C@@H](C)O)n2)cc1NC(=O)c1cnc2cc(C(F)F)ccn12 [Compound I-83] | ≤ 50 | **** (a solubility less than or equal to 2 μM) | 25.3 | 0.96 10^−6 cm/s | – | – | – | –
Cc1ccc(-c2noc(C3CC3(C)C)n2)cc1NC(=O)c1cnc2ccccn12 (centres unmarked) [Compound I-127] | ≤ 50 | – | – | – | ≤ 50 | ≤ 50 | 50 to 500 | –
COCc1ccn2c(C(=O)Nc3cc(-c4noc(C5CN(C(=O)OC)C5)n4)ccc3C)cnc2c1 [Compound I-140] | 50 to 500 | *** (a solubility greater than 2 μM and less than or equal to 10 μM) | – | – | ≤ 50 | 50 to 500 | 5000 to 30000 | –
Cc1ccc(-c2noc([C@@H]3CCN3S(=O)(=O)c3cn(C)cn3)n2)cc1NC(=O)c1cnc2ccccn12 [Compound I-184] | 500 to 5000 | **** (a solubility less than or equal to 2 μM) | – | – | ≤ 50 | 50 to 500 | 500 to 5000 | –
Cc1ccc(-c2noc([C@@H]3CCN3S(=O)(=O)c3cccnc3)n2)cc1NC(=O)c1cnc2ccccn12 [Compound I-185] | ≤ 50 | **** (a solubility less than or equal to 2 μM) | – | – | ≤ 50 | ≤ 50 | 50 to 500 | –
COC(=O)N1CC(c2nc(-c3ccc(C#N)c(NC(=O)c4cnc5ccccn45)c3)no2)C1 [Compound I-212] | 50 to 500 | *** (a solubility greater than 2 μM and less than or equal to 10 μM) | – | – | 50 to 500 | – | – | 50 to 500
Cc1ccc(-c2noc(N3CCC(F)(F)CC3)n2)cc1NC(=O)c1cnc2ccccn12 [Compound I-214] | 50 to 500 | *** (a solubility greater than 2 μM and less than or equal to 10 μM) | – | – | ≤ 50 | – | – | 50 to 500
O=C(Nc1cc(-c2noc([C@@H]3CC(F)(F)CN3)n2)ccc1Cl)c1cnc2ccccn12 [Compound I-221] | 50 to 500 | **** (a solubility less than or equal to 2 μM) | – | – | ≤ 50 | 50 to 500 | 5000 to 30000 | 50 to 500
Cc1ccc(-c2noc([C@@H]3CC4(CC4)CN3)n2)cc1NC(=O)c1cnc2ccccn12 [Compound I-230] | ≤ 50 | ** (a solubility greater than 10 μM and less than or equal to 50 μM) | – | – | ≤ 50 | ≤ 50 | 50 to 500 | ≤ 50
CCCS(=O)(=O)N1CCC1c1nc(-c2ccc(C)c(NC(=O)c3cnc4ccccn34)c2)no1 (centres unmarked) [Compound I-242] | 50 to 500 | *** (a solubility greater than 2 μM and less than or equal to 10 μM) | – | – | ≤ 50 | – | – | ≤ 50
COC(=O)N1CC(c2nc(-c3ccc(C)c(NC(=O)c4cnc5cc(OCC(C)(C)O)ccn45)c3)no2)C1 [Compound I-261] | ≤ 50 | ** (a solubility greater than 10 μM and less than or equal to 50 μM) | – | – | ≤ 50 | ≤ 50 | 50 to 500 | ≤ 50
Cc1ccc(-c2noc(C3CC4(C3)CC(F)(F)C4)n2)cc1NC(=O)c1cnc2ccccn12 [Compound I-266] | ≤ 50 | **** (a solubility less than or equal to 2 μM) | – | – | ≤ 50 | ≤ 50 | 50 to 500 | ≤ 50
Cc1nc(-c2ccc(C)c(NC(=O)c3cnn4ccccc34)c2)no1 [Compound I-428] | ≤ 50 | – | – | – | ≤ 50 | 500 to 5000 | 500 to 5000 | –
